In patent US9879034B2, “Near-infrared absorption composition, cured film, near-infrared cut filter, solid-state imaging device, infrared sensor, and compound” (FUJIFILM Corporation, priority 2015, dated 2018):

How the values were obtained:
[1] = Solubility of compound to solvent at 25° C.; assay type: physicochemical; settings: for Solubility Cyclohexanone / Solubility PGMEA / Solubility Toluene: 25° C.; for Solubility PGMEA: propylene glycol monomethyl ether acetate; for Solubility Cyclohexanone / solubility of the compound to each solvent (in words): cyclohexanone; for solubility of the compound to each solvent (in words): PGMEA; for Solubility Toluene / solubility of the compound to each solvent (in words): toluene
Protocol: The solubility of each compound to each solvent (cyclohexanone, propylene glycol monomethyl ether acetate (PGMEA), and toluene) at 25° C. was evaluated based on the following standards.
A: The solubility of the compound to the solvent at 25° C. is 2 mass % or greater.

[2] = Maximum absorption wavelength of compound solution (UV-1800); assay type: physicochemical; design: unit: nm; settings: dissolved in tetrahydrofuran, 1 g/L
Protocol: According to the invention, the value of the maximum absorption wavelength is obtained as follows: a compound represented by Formula (1) is dissolved in tetrahydrofuran to prepare a solution with a concentration of 1 g/L, and an absorption spectrum of the solution obtained by dissolving the compound is measured in a wavelength range of 350 nm to 1,200 nm using UV-1800 manufactured by Shimadzu Corporation.
Each compound was dissolved in tetrahydrofuran to prepare a solution with a concentration of 1 g/L. Next, the absorption spectrum of the solution obtained by dissolving each compound was measured using UV-1800 manufactured by Shimadzu Corporation, and a maximum absorption wavelength (λmax) was measured.

For `CC(C)CCCC(C)CCc1ccc(B2N=c3/c(=C4\C(=O)C(c5ccc6cccc7c6c5NB(c5ccc(CCC(C)CCCC(C)C)cc5)N7)=C4O)ccc4cccc(c34)N2)cc1` (racemic) [SQ-2], the “Solubility Cyclohexanone” value [1] was “A (The solubility of the compound to the solvent at 25 °C is 2 mass % or greater.)”, the “Solubility PGMEA” value [1] was “A (The solubility of the compound to the solvent at 25 °C is 2 mass % or greater.)” and the “Solubility Toluene” value [1] was “A (The solubility of the compound to the solvent at 25 °C is 2 mass % or greater.)”. The “Maximum Absorption Wavelength” value [2] was 823.

With `C=CCCCCCCCCOc1ccccc1B1N=c2/c(=C3\C(=O)C(c4ccc5cccc6c5c4NB(c4ccccc4OCCCCCCCCC=C)N6)=C3O)ccc3cccc(c23)N1` [SQ-11] the “Solubility Cyclohexanone” value [1] was “A (The solubility of the compound to the solvent at 25 °C is 2 mass % or greater.)”, the “Solubility PGMEA” value [1] was “B (The solubility of the compound to the solvent at 25 °C is 1 mass % to less than 2 mass %.)” and the “Solubility Toluene” value [1] was “A (The solubility of the compound to the solvent at 25 °C is 2 mass % or greater.)”. The “Maximum Absorption Wavelength” value [2] was 828.

With `CCCCCCCCCC(CCCCCCCCC)Oc1ccc(B2N=c3/c(=C4\C(=O)C(c5ccc6cccc7c6c5NB(c5ccc(OC(CCCCCCCCC)CCCCCCCCC)cc5)N7)=C4O)ccc4cccc(c34)N2)cc1` [SQ-4] the “Solubility Cyclohexanone” value [1] was “B (The solubility of the compound to the solvent at 25 °C is 1 mass % to less than 2 mass %.)”, the “Solubility PGMEA” value [1] was “B (The solubility of the compound to the solvent at 25 °C is 1 mass % to less than 2 mass %.)” and the “Solubility Toluene” value [1] was “A (The solubility of the compound to the solvent at 25 °C is 2 mass % or greater.)”. For the same molecule, the “Maximum Absorption Wavelength” value [2] was 823.

For `CC(C)(C)c1ccc(B2N=c3/c(=C4\C(=O)C(c5ccc6cccc7c6c5NB(c5ccc(C(C)(C)C)cc5)N7)=C4O)ccc4cccc(c34)N2)cc1` [Compound R-1, reference compound], the “Solubility Cyclohexanone” value [1] was “D (The solubility of the compound to the solvent at 25 °C is less than 0.5 mass %.)”, the “solubility of the compound to each solvent (in words)” value [1] was “did not have sufficient solubility” and the “Solubility PGMEA” value [1] was “D (The solubility of the compound to the solvent at 25 °C is less than 0.5 mass %.)”. The “Solubility Toluene” value [1] was “D (The solubility of the compound to the solvent at 25 °C is less than 0.5 mass %.)” and the “Maximum Absorption Wavelength” value [2] was 827.

In the case of `CCCCCCCCCC(CCCCCCCCC)B1N=c2/c(=C3\C(=O)C(c4ccc5cccc6c5c4NB(C(CCCCCCCCC)CCCCCCCCC)N6)=C3O)ccc3cccc(c23)N1` [SQ-7], the “Solubility Cyclohexanone” value [1] is reported as “B (The solubility of the compound to the solvent at 25 °C is 1 mass % to less than 2 mass %.)”, the “Solubility PGMEA” value [1] is reported as “B (The solubility of the compound to the solvent at 25 °C is 1 mass % to less than 2 mass %.)” and the “Solubility Toluene” value [1] is reported as “B (The solubility of the compound to the solvent at 25 °C is 1 mass % to less than 2 mass %.)”. The “Maximum Absorption Wavelength” value [2] was 815.

In the case of `COCCOCCOCCOc1ccc(B2N=c3/c(=C4\C(=O)C(c5ccc6cccc7c6c5NB(c5ccc(OCCOCCOCCOC)cc5)N7)=C4O)ccc4cccc(c34)N2)cc1` [SQ-5], the “Solubility Cyclohexanone” value [1] is reported as “B (The solubility of the compound to the solvent at 25 °C is 1 mass % to less than 2 mass %.)”, the “Solubility PGMEA” value [1] is reported as “A (The solubility of the compound to the solvent at 25 °C is 2 mass % or greater.)” and the “Solubility Toluene” value [1] is reported as “B (The solubility of the compound to the solvent at 25 °C is 1 mass % to less than 2 mass %.)”. For the same molecule, the “Maximum Absorption Wavelength” value [2] was 823.

With `CCC1(CC)N=c2/c(=C3\C(=O)C(c4ccc5cccc6c5c4NC(CC)(CC)N6)=C3O)ccc3cccc(c23)N1` [Compound R-2, reference compound] the “Solubility Cyclohexanone” value [1] was “C (The solubility of the compound to the solvent at 25 °C is 0.5 mass % to less than 1 mass %.)”, the “solubility of the compound to each solvent (in words)” value [1] was “did not have sufficient solubility” and the “Solubility PGMEA” value [1] was “C (The solubility of the compound to the solvent at 25 °C is 0.5 mass % to less than 1 mass %.)”. The “Solubility Toluene” value [1] was “B (The solubility of the compound to the solvent at 25 °C is 1 mass % to less than 2 mass %.)” and the “Maximum Absorption Wavelength” value [2] was 807.

With `CCCCCCCCCCOc1ccccc1B1N=c2/c(=C3\C(=O)C(c4ccc5cccc6c5c4NB(c4ccccc4OCCCCCCCCCC)N6)=C3O)ccc3cccc(c23)N1` [SQ-6] the “Solubility Cyclohexanone” value [1] was “B (The solubility of the compound to the solvent at 25 °C is 1 mass % to less than 2 mass %.)”, the “Solubility PGMEA” value [1] was “B (The solubility of the compound to the solvent at 25 °C is 1 mass % to less than 2 mass %.)” and the “Solubility Toluene” value [1] was “A (The solubility of the compound to the solvent at 25 °C is 2 mass % or greater.)”. The “Maximum Absorption Wavelength” value [2] was 828.
